Results reported in patent publication US20160251342A1, “ALDEHYDE DERIVATIVE OF SUBSTITUTED OXAZOLIDINONES” (WANBURY LTD., priority 2012, published 2016).

Experiments:
thrombus formation [1] = assay: Arterial thrombosis model (rat); type: in vivo, rats (strain: Wistar); settings: for ED50: Rattus norvegicus, arterial thrombosis, read-out: ED-50 to inhibit the thrombus formation
Description: Male fasting rats (strain: Wistar) having a weight 280-320 g were anaesthetized using isoflurane/oxygen. The left carotid artery was exposed (about 2 cm). The formation of an arterial thrombus was induced by mechanical injury to the blood vessel in accordance with the method described by K. Meng et al., Naunyn-Schmiedeberg's Arch. Pharmacol. (1977), 301, 115-119. To this end, the exposed carotid artery was clamped from the blood flow, cooled to -20° C. in a metal trough for 2 minutes and, to standardize the size of the thrombi, simultaneously compressed using a weight of 200 g. […] The proximal clamp was removed, and the wound was closed and re-opened after 2 hours to remove the injured section of the vessel. The section of the vessel was opened longitudinally and the thrombus was removed from the injured section of the vessel. The moist weight of the thrombi was determined immediately. […] Animals were grouped by body weight stratification and randomization (Represented by G1-[…]). The grouping was done one day prior to the experiment initiation.

[2] = In vitro liver microsomal stability assay, human; type: in vitro ADME; settings: human microsomes; for % Parent remaning (Human): rivaroxaban itself incubated
Description: (§1) Liver microsomal stability assays are conducted at 1 mg per mL liver microsome protein with an NADPH in phosphate buffer (100 mM, pH 7.4). Test compounds (compound of formula B of the invention) are prepared as solutions in 20% methanol-water and added to the assay mixture (final assay concentration 1 μM) and incubated at 37° C. Aliquots (100 .μ.L) are taken out at times 0, 15, and 30 minutes, and diluted with ice cold acetonitrile containing IS (200 µL) to stop the reactions. Samples are centrifuged at 10,000 RPM for 5 minutes to precipitate proteins. Supernatants are transferred to micro centrifuge tubes and stored at −20° C. for analysis of LC/MS/MS. The percent parent remaining of the test substance is calculated as Ratio of peak area at each time point to peak area ratio at zero min, multiplied by 100. The compound formula (B) is converted to Rivaroxaban in microsomal assay.

thrombus formation [3] = assay: Venous thrombosis model (rat); type: in vivo, rats (strain: Wistar); settings: for ED50: Rattus norvegicus, venous thrombosis, per oral, read-out: ED-50 to inhibit the thrombus formation; for Mean thrombus weight (mg) (±SEM): per oral 120 minutes before induction, vehicle 4.36 ± 0.58
Description: Male fasting rats (strain: Wistar) having a weight 280-320 g were anaesthetized using isoflurane/oxygen. The left jugular vein was exposed (about 2 cm). The formation of a venous thrombus was induced by mechanical injury to the blood vessel in accordance with the method described by K. Meng, et al., Naunyn-Schmiedeberg's Arch. Pharmacol. (1977), 301, 115-119. To this end, the jugular vein was clamped from the blood flow, cooled to -12° C. in a metal trough for 2 minutes and, to standardize the size of the thrombi, simultaneously compressed using a weight of 200 g. The blood flow was re-opened and the wound was closed. After 4 hours, the wound was re-opened to remove the thrombi from the injured sections of the vessel. The moist weight of the thrombi was determined immediately. […] Animals were grouped by body weight stratification and randomization (Represented by G12-[…]). The grouping was done one day prior to the experiment initiation.

[4] = In vitro stability in mouse plasma (LC-MS); type: in vitro ADME; settings: for % Parent remaining (Mouse): rivaroxaban itself incubated
Description: The final concentration of the test compound in the assay is 5 micromolar. […] C. The 100 microlitres of aliquot at time point was removed and diluted with ice cold acetonitrile containing IS (200 µL) to stop the reactions. Samples are centrifuged at 10,000 RPM for 5 minutes to precipitate proteins. Supernatants are transferred to micro centrifuge tubes and stored at −20° C. for analysis of LC/MS/MS. The percent parent remaining of the test substance is calculated as ratio of peak area at each time point to peak area ratio at zero min, multiplied by 100.
API 4000, ESI Agilent 1100 column: Gemini Nx 100 mm×4.6 mm 5.μ; column temperature: 30° C.; eluent A: 0.1% formic acid in water, eluent B: acetonitrile; gradient: 0-2.5 min 95% A, 5% B; 2.5-2.6 min 5% A, 95% B; 2.6-4.2 min 95% A, 5% B; flow rate: 0.8 ml/min; ESI. Q1:464.098, Q3:144.255

thrombus formation [5] = assay: Arteriovenous shunt model (rat); type: in vivo, rats (strain: Wistar); settings: for ED50: Rattus norvegicus, arteriovenous shunt, read-out: ED-50 to inhibit the thrombus formation
Source text: Fasting male rats (strain: Wistar) having a weight of 280-320 g were anaesthetized using a isoflurane/oxygen. Thrombus formation was initiated in an arteriovenous shunt in accordance with the method described by Christopher N. Berry et al., Br. J. Pharmacol. (1994), 113, 1209-1214. To this end, the left jugular vein and the right carotid artery were exposed. The two vessels were connected by an extracorporeal shunt using a 10 cm long Poly Vinyl Chloride tube (.P.V.C.) 9 internal diameter i.d. 0.5 mm), in middle of PVC tubing a 5 cm Scalp vein tube (i.d. 1.5 mm) will be attached which contained a 3 cm long roughened surface nylon thread which will be arranged to form a loop to form a thrombogenic surface. The extracorporeal circulation was maintained for 15 minutes. The shunt was then removed and the nylon thread with the thrombus was weighed immediately. The weight of the nylon thread on its own had been determined before the experiment was started. Before the extracorporeal circulation was set up, The test item [compound formula (B) (Wanxaban)/reference item (Rivaroxaban)/vehicle will be administered to the animals as per routes preferred. Animals were grouped by body weight stratification and randomization (Represented by G1-[…]). The grouping was done one day prior to the experiment initiation.

[6] = In vitro liver microsomal stability assay, rat; type: in vitro ADME; settings: rat microsomes; for % Parent remaining (rat): rivaroxaban itself incubated
Description: as §1

[7] = In vitro liver microsomal stability assay, mouse; type: in vitro ADME; settings: mouse microsomes
Description: as §1

[8] = intravenous 5 minutes before induction, Dose 0.5, vehicle 2.08 ± 0.47
[9] = intravenous 5 minutes before induction, Dose 1, vehicle 2.08 ± 0.47
[10] = intravenous 5 minutes before induction, Dose 2, vehicle 2.08 ± 0.47
[11] = intravenous 5 minutes before induction, Dose 3, vehicle 2.08 ± 0.47
[12] = intravenous 5 minutes before induction, Dose 4, vehicle 2.08 ± 0.47
[13] = per oral 120 minutes before induction, Dose 2.5, vehicle 1.70 ± 0.39
[14] = per oral 120 minutes before induction, Dose 5.0, vehicle 1.70 ± 0.39
[15] = per oral 120 minutes before induction, Dose 10, vehicle 1.70 ± 0.39
[16] = per oral 120 minutes before induction, Dose 15, vehicle 1.70 ± 0.39
[17] = per oral 120 minutes before induction, Dose 20, vehicle 1.70 ± 0.39
[18] = intravenous, Dose 0.5, vehicle 27.26 ± 1.23
[19] = intravenous, Dose 1, vehicle 27.26 ± 1.23
[20] = intravenous, Dose 2, vehicle 27.26 ± 1.23
[21] = intravenous, Dose 3, vehicle 27.26 ± 1.23
[22] = intravenous, Dose 4, vehicle 27.26 ± 1.23
[23] = per oral, Dose 2.5, vehicle 26.95 ± 1.23
[24] = per oral, Dose 5, vehicle 26.95 ± 1.23
[25] = per oral, Dose 10, vehicle 26.95 ± 1.23
[26] = per oral, Dose 15, vehicle 26.95 ± 1.23
[27] = per oral, Dose 20, vehicle 26.95 ± 1.23

O=C(NC[C@H]1CN(c2ccc(N3CCOCC3=O)cc2)C(=O)O1)c1ccc(Cl)s1 [Rivaroxaban, 5-chloro-N-({(5S)-2-oxo-3-[4-(3-oxomorpholin-4-yl)phenyl]-1,3-oxazolidin-5-yl}methyl)thiophene-2-carboxamide, reference compound]
ED50 (thrombus formation [1]; intravenous): 2.5 mg/kg | ED50 (thrombus formation [1]; per oral): 24.2 mg/kg | Mean thrombus weight (mg) (±SEM) (thrombus formation [1]; [8]): 1.10 ± 0.32 mg | Mean thrombus weight (mg) (±SEM) (thrombus formation [1]; [9]): 0.62 ± 0.08 mg | Mean thrombus weight (mg) (±SEM) (thrombus formation [1]; [10]): 0.70 ± 0.11 mg | Mean thrombus weight (mg) (±SEM) (thrombus formation [1]; [11]): 0.41 ± 0.05 mg | Mean thrombus weight (mg) (±SEM) (thrombus formation [1]; [12]): 0.34 ± 0.08 mg | Mean thrombus weight (mg) (±SEM) (thrombus formation [1]; [13]): 1.71 ± 0.45 mg | Mean thrombus weight (mg) (±SEM) (thrombus formation [1]; [14]): 1.78 ± 0.66 mg | Mean thrombus weight (mg) (±SEM) (thrombus formation [1]; [15]): 0.84 ± 0.23 mg | Mean thrombus weight (mg) (±SEM) (thrombus formation [1]; [16]): 0.78 ± 0.14 mg | Mean thrombus weight (mg) (±SEM) (thrombus formation [1]; [17]): 0.65 ± 0.10 mg | % Parent remaning (Human) ([2]; 0 min): 100% | % Parent remaning (Human) ([2]; 15 min): 0.01% | % Parent remaning (Human) ([2]; 30 min): 0.01% | ED50 (thrombus formation [3]): 12.3 mg/kg | Mean thrombus weight (mg) (±SEM) (thrombus formation [3]; Dose 2.5): 2.93 ± 0.50 mg | Mean thrombus weight (mg) (±SEM) (thrombus formation [3]; Dose 5.0): 2.06 ± 0.73 mg | Mean thrombus weight (mg) (±SEM) (thrombus formation [3]; Dose 10): 2.06 ± 0.53 mg | Mean thrombus weight (mg) (±SEM) (thrombus formation [3]; Dose 15): 1.43 ± 0.46 mg | Mean thrombus weight (mg) (±SEM) (thrombus formation [3]; Dose 20): 1.66 ± 0.74 mg | Conversion summary: unchanged, stable in plasma ([4]; rivaroxaban itself): unchanged, | % Parent remaining (Mouse) ([4]; 0 min): 100% | % Parent remaining (Mouse) ([4]; 30 min): 100% | % Parent remaining (Mouse) ([4]; 60 min): 100% | ED50 (thrombus formation [5]; intravenous): 1.7 mg/kg | ED50 (thrombus formation [5]; per oral): 26.2 mg/kg | Mean thrombus weight (mg) (±SEM) (thrombus formation [5]; [18]): 13.95 ± 1.49 mg | Mean thrombus weight (mg) (±SEM) (thrombus formation [5]; [19]): 10.84 ± 1.16 mg | Mean thrombus weight (mg) (±SEM) (thrombus formation [5]; [20]): 10.83 ± 1.11 mg | Mean thrombus weight (mg) (±SEM) (thrombus formation [5]; [21]): 6.92 ± 0.57 mg | Mean thrombus weight (mg) (±SEM) (thrombus formation [5]; [22]): 7.56 ± 0.59 mg | Mean thrombus weight (mg) (±SEM) (thrombus formation [5]; [23]): 19.2 ± 0.2 mg | Mean thrombus weight (mg) (±SEM) (thrombus formation [5]; [24]): 17.26 ± 0.75 mg | Mean thrombus weight (mg) (±SEM) (thrombus formation [5]; [25]): 15.41 ± 1.25 mg | Mean thrombus weight (mg) (±SEM) (thrombus formation [5]; [26]): 16.9 ± 0.49 mg | Mean thrombus weight (mg) (±SEM) (thrombus formation [5]; [27]): 9.7 ± 1.34 mg | Observation: metabolism ([6]; rivaroxaban itself): High | % Parent remaining (rat) ([6]; 0 min): 100% | % Parent remaining (rat) ([6]; 15 min): 0.01% | % Parent remaining (rat) ([6]; 30 min): 0.02% | Observation: metabolism ([7]; rivaroxaban itself): High

O=CN(C[C@H]1CN(c2ccc(N3CCOCC3=O)cc2)C(=O)O1)C(=O)c1ccc(Cl)s1 [compound formula (B), 5-chloro-N-formyl-N-({(5S)-2-oxo-3-[4-(3-oxomorpholin-4-yl)phenyl]-1,3-oxazolidin-5-yl}methyl)thiophene-2-carboxamide]
ED50 (thrombus formation [1]; intravenous): 0.5 mg/kg | ED50 (thrombus formation [1]; per oral): 4 mg/kg | Mean thrombus weight (mg) (±SEM) (thrombus formation [1]; [8]): 1.32 ± 0.17 mg | Mean thrombus weight (mg) (±SEM) (thrombus formation [1]; [9]): 0.60 ± 0.09 mg | Mean thrombus weight (mg) (±SEM) (thrombus formation [1]; [10]): 0.61 ± 0.09 mg | Mean thrombus weight (mg) (±SEM) (thrombus formation [1]; [11]): 0.47 ± 0.05 mg | Mean thrombus weight (mg) (±SEM) (thrombus formation [1]; [12]): 0.36 ± 0.03 mg | Mean thrombus weight (mg) (±SEM) (thrombus formation [1]; [13]): 1.15 ± 0.13 mg | Mean thrombus weight (mg) (±SEM) (thrombus formation [1]; [14]): 0.71 ± 0.04 mg | Mean thrombus weight (mg) (±SEM) (thrombus formation [1]; [15]): 0.78 ± 0.14 mg | Mean thrombus weight (mg) (±SEM) (thrombus formation [1]; [16]): 0.58 ± 0.11 mg | Mean thrombus weight (mg) (±SEM) (thrombus formation [1]; [17]): 0.44 ± 0.04 mg | Amount of test product detected (metabolised to rivaroxaban from zero min) [2]: Neglible | ED50 (thrombus formation [3]): 1.9 mg/kg | Mean thrombus weight (mg) (±SEM) (thrombus formation [3]; Dose 2.5): 3.81 ± 1.55 mg | Mean thrombus weight (mg) (±SEM) (thrombus formation [3]; Dose 5.0): 1.60 ± 0.10 mg | Mean thrombus weight (mg) (±SEM) (thrombus formation [3]; Dose 10): 0.66 ± 0.09 mg | Mean thrombus weight (mg) (±SEM) (thrombus formation [3]; Dose 15): 0.53 ± 0.18 mg | Mean thrombus weight (mg) (±SEM) (thrombus formation [3]; Dose 20): 0.62 ± 0.16 mg | Amount of test product detected (conversion to rivaroxaban from zero min) [4]: min. Neglible | ED50 (thrombus formation [5]; intravenous): 1 mg/kg | ED50 (thrombus formation [5]; per oral): 22.8 mg/kg | Mean thrombus weight (mg) (±SEM) (thrombus formation [5]; [18]): 18.7 ± 1.22 mg | Mean thrombus weight (mg) (±SEM) (thrombus formation [5]; [19]): 13.99 ± 2 mg | Mean thrombus weight (mg) (±SEM) (thrombus formation [5]; [20]): 8.45 ± 0.75 mg | Mean thrombus weight (mg) (±SEM) (thrombus formation [5]; [21]): 5.83 ± 0.31 mg | Mean thrombus weight (mg) (±SEM) (thrombus formation [5]; [22]): 4.81 ± 0.31 mg | Mean thrombus weight (mg) (±SEM) (thrombus formation [5]; [23]): 3.81 ± 1.55 mg | Mean thrombus weight (mg) (±SEM) (thrombus formation [5]; [24]): 1.60 ± 0.10 mg | Mean thrombus weight (mg) (±SEM) (thrombus formation [5]; [25]): 0.66 ± 0.09 mg | Mean thrombus weight (mg) (±SEM) (thrombus formation [5]; [26]): 0.53 ± 0.18 mg | Mean thrombus weight (mg) (±SEM) (thrombus formation [5]; [27]): 0.62 ± 0.16 mg | Amount of test product detected (metabolised to rivaroxaban from zero min) [6]: min. Neglible | Amount of test product detected (metabolised to rivaroxaban from zero min) [7]: min. Neglible
